Results taken from patent publication US10745382B2 (BRISTOL-MYERS SQUIBB COMPANY, priority 2015, dated 2020).

Biological target: T1, PD-1/PD-L1 (Homo sapiens, UniProt Q9NZQ7)
T1 construct: made in house; host or cells: HEK293T
Assay: PD-1/PD-L1 Homogenous Time-Resolved Fluorescence (HTRF) binding assay
Details: PD-L1-His 10 nM, PD-1-Ig 20 nM; numeric IC50; read-out: Range or IC50
Summary of the method: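 Binding measured in dPBS with 0.1% BSA and 0.05% Tween-20, detected by HTRF with europium cryptate anti-Ig (1 nM final) and APC anti-His (20 nM final) added over the binding reaction. Counter-assays used human PD-1-Ig/PD-L2-His (20 and 5 nM) and CD80-His/PD-L1-Ig (100 and 10 nM).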

T1 sequence (Q9NZQ7 with tags, fused parts or gaps): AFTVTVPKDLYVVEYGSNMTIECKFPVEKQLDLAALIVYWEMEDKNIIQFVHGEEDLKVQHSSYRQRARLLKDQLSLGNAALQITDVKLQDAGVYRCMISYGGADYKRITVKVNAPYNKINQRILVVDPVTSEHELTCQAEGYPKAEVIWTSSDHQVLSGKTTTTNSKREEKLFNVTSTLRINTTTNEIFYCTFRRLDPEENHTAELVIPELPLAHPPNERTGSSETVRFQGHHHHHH

Question: `Cc1c(OCCCN2CCOCC2)cccc1-c1cccc(COc2cc(OCc3cncc(C#N)c3)c(CN3CCCC[C@H]3C(=O)O)cc2Cl)c1Cl` [Example 2309, (S)-1-(5-chloro-4-((2-chloro-2′-methyl-3′-(3-morpholinopropoxy)-[1,1′-biphenyl]-3-yl)methoxy)-2-((5-cyanopyridin-3-yl)methoxy)benzyl)piperidine-2-carboxylic Acid] was tested. Which IC50 did it give?
Answer: Its IC50 is 3 nM.

Same assay, conditions: PD-L1-His 10 nM, PD-1-Ig 20 nM; value given as range class; read-out: Range or IC50

Question: For `COC(=O)[C@@H]1CCN(CCCOc2cccc(-c3cccc(COc4cc(OCc5cncc(S(C)(=O)=O)c5)c(CN[C@](C)(CO)C(=O)O)cc4Cl)c3C)c2C)C1` [Example 1082, (R)-2-((5-chloro-4-((3′-(3-((R)-3-(methoxycarbonyl)pyrrolidin-1-yl)propoxy)-2,2′-dimethyl-[1,1′-biphenyl]-3-yl)methoxy)-2-((5-(methylsulfonyl)pyridin-3-yl)methoxy)benzyl)amino)-3-hydroxy-2-methylpropanoic Acid], which IC50 is on record?
Answer: Its IC50 is 0.21 to 10 nM.

Question: `Cc1c(COc2cc(OCc3cncc(C#N)c3)c(CN(C)C(C)(CO)CO)c(C)c2Cl)cccc1-c1cccc(OCCCN2CC[C@@H](O)C2)c1C` [Example 4107, (R)-5-((4-chloro-2-(((1,3-dihydroxy-2-methylpropan-2-yl)(methyl)amino)methyl)-5-((3′-(3-(3-hydroxypyrrolidin-1-yl)propoxy)-2,2′-dimethyl-[1,1′-biphenyl]-3-yl)methoxy)-3-methylphenoxy)methyl)nicotinonitrile] was tested. Which IC50 did it give?
Answer: The IC50 was 0.21 to 10 nM.

Question: With `Cc1c(COc2cc(OCc3cncc(C#N)c3)c(CN3CCNC[C@H]3C(=O)O)cc2Cl)cccc1-c1cccc(C(=O)N2CCOCC2)c1C` [Example 4060, (S)-1-(5-chloro-2-((5-cyanopyridin-3-yl)methoxy)-4-((2,2′-dimethyl-3′-(morpholine-4-carbonyl)-[1,1′-biphenyl]-3-yl)methoxy)benzyl)piperazine-2-carboxylic Acid] as the compound, how does the IC50 read?
Answer: Its IC50 is 100 to 2000 nM.

Question: For `CCOC(=O)C1(CO)CCN(CCCOc2cccc(-c3cccc(COc4cc(OCc5cncc(S(C)(=O)=O)c5)c(CN[C@H](CO)C(=O)O)cc4Cl)c3C)c2C)C1` (stereo partly drawn) [Example 1045, (2R)-2-((5-chloro-4-((3′-(3-(3-(ethoxycarbonyl)-3-(hydroxymethyl)pyrrolidin-1-yl)propoxy)-2,2′-dimethyl-[1,1′-biphenyl]-3-yl)methoxy)-2-((5-(methylsulfonyl)pyridin-3-yl)methoxy)benzyl)amino)-3-hydroxypropanoic Acid], which IC50 is on record?
Answer: The IC50 was 0.21 to 10 nM.

Question: Which IC50 does the source give for `Cc1c(COc2cc(OCc3cncc(C#N)c3)c(CNC3(CO)CC3)cc2Cl)cccc1-c1cccc(OCCCN2CC[C@@H](O)C2)c1Cl` [Example 2077, (R)-5-((4-chloro-5-((2′-chloro-3′-(3-(3-hydroxypyrrolidin-1-yl)propoxy)-2-methyl-[1,1′-biphenyl]-3-yl)methoxy)-2-(((1-(hydroxymethyl)cyclopropyl)amino)methyl)phenoxy)methyl)nicotinonitrile] here?
Answer: Its IC50 is 0.21 to 10 nM.

Question: `Cc1cc(OCc2cccc(-c3cccc(OCCCN4CC[C@@H](O)C4)c3C)c2C)c(Cl)cc1CN1CCCC[C@H]1C(=O)O` [Example 4523, (S)-1-(5-chloro-4-((3′-(3-((R)-3-hydroxypyrrolidin-1-yl)propoxy)-2,2′-dimethyl-[1,1′-biphenyl]-3-yl)methoxy)-2-methylbenzyl)piperidine-2-carboxylic Acid] was tested. Which IC50 did it give?
Answer: The IC50 was 0.21 to 10 nM.

Question: For `COc1cc(CCc2cccc(-c3cccc(OCCCN4CC[C@@H](O)C4)c3C)c2C)c(Cl)cc1CN1CCCC[C@H]1C(=O)O` [Example 4518, (S)-1-(5-chloro-4-(2-(3′-(3-((R)-3-hydroxypyrrolidin-1-yl)propoxy)-2,2′-dimethyl-[1,1′-biphenyl]-3-yl)ethyl)-2-methoxybenzyl)piperidine-2-carboxylic Acid], which IC50 is on record?
Answer: The IC50 was 0.21 to 10 nM.

Question: Which IC50 does the source give for `Cc1c(COc2cc(OCc3cncc(C#N)c3)c(CNC(C)(CO)CO)cc2Cl)cccc1-c1cccc(CN(C)CCN2CCS(=O)(=O)CC2)c1C` [Example 4082, 5-((4-chloro-2-(((1,3-dihydroxy-2-methylpropan-2-yl)amino)methyl)-5-((3′-(((2-(1,1-dioxidothiomorpholino)ethyl)(methyl)amino)methyl)-2,2′-dimethyl-[1,1′-biphenyl]-3-yl)methoxy)phenoxy)methyl)nicotinonitrile] here?
Answer: The IC50 was 0.21 to 10 nM.

Question: Which IC50 does the source give for `CC(=O)NC1CCN(CCCOc2cccc(-c3cccc(COc4cc(OCc5cncc(C#N)c5)c(CO)cc4Cl)c3C)c2Cl)C1` (stereo not shown) [Example 2021, N-(1-(3-((2-chloro-3′-((2-chloro-5-((5-cyanopyridin-3-yl)methoxy)-4-(hydroxymethyl)phenoxy)methyl)-2′-methyl-[1,1′-biphenyl]-3-yl)oxy)propyl)pyrrolidin-3-yl)acetamide] here?
Answer: Its IC50 is 0.21 to 10 nM.

Question: `Cc1c(COc2cc(OCc3cncc(C#N)c3)c(CNC(CO)CO)cc2Cl)cccc1-c1cccc(OCCCNC(CO)CO)c1Cl` [Example 2042, 5-((4-chloro-5-((2′-chloro-3′-(3-((1,3-dihydroxypropan-2-yl)amino)propoxy)-2-methyl-[1,1′-biphenyl]-3-yl)methoxy)-2-(((1,3-dihydroxypropan-2-yl)amino)methyl)phenoxy)methyl)nicotinonitrile] was tested. Which IC50 did it give?
Answer: Its IC50 is 0.21 to 10 nM.

Question: For `Cc1c(COc2cc(OCc3cc(Cl)cc(Cl)c3)c(CN3CCCC[C@H]3C(=O)O)cc2Cl)cccc1-c1cccc(OCCCN2CC[C@@H](O)C2)c1C` [Example 4503, (S)-1-(5-chloro-2-((3,5-dichlorobenzyl)oxy)-4-((3′-(3-((R)-3-hydroxypyrrolidin-1-yl)propoxy)-2,2′-dimethyl-[1,1′-biphenyl]-3-yl)methoxy)benzyl)piperidine-2-carboxylic Acid], which IC50 is on record?
Answer: The IC50 was 0.21 to 10 nM.

Question: How did the IC50 turn out when `Cc1c(COc2cc(OCc3cncc(C#N)c3)c(CNC[C@H](O)CO)cc2Cl)cccc1-c1cccc(OCCCNC[C@H](O)CO)c1C` [Example 2265, 5-((4-chloro-2-(((S)-2,3-dihydroxypropylamino)methyl)-5-((3′-(3-((S)-2,3-dihydroxypropylamino)propoxy)-2,2′-dimethylbiphenyl-3-yl)methoxy)phenoxy)methyl)nicotinonitrile] was run?
Answer: Its IC50 is 0.21 to 10 nM.

Question: With `Cc1c(COc2cc(OCc3cncc(C#N)c3)c(CN[C@@](C)(CO)C(=O)O)cc2Cl)cccc1-c1cccc(OCCCN2CCOCC2)c1C` [Example 2273, (S)-2-((5-chloro-2-((5-cyanopyridin-3-yl)methoxy)-4-((2,2′-dimethyl-3′-(3-morpholinopropoxy)-[1,1′-biphenyl]-3-yl)methoxy)benzyl)amino)-3-hydroxy-2-methylpropanoic Acid] as the compound, how does the IC50 read?
Answer: The IC50 was 0.21 to 10 nM.

Question: Which IC50 does the source give for `CC(=O)NC1CCN(CCCOc2cccc(-c3cccc(COc4cc(OCc5cncc(C#N)c5)c(CN5CCCC[C@H]5C(=O)O)cc4Cl)c3Cl)c2Cl)C1` (stereo partly drawn) [Example 2047, (2S)-1-(4-((3′-(3-(3-acetamidopyrrolidin-1-yl)propoxy)-2,2′-dichloro-[1,1′-biphenyl]-3-yl)methoxy)-5-chloro-2-((5-cyanopyridin-3-yl)methoxy)benzyl)piperidine-2-carboxylic Acid] here?
Answer: The IC50 was 0.21 to 10 nM.

Question: With `Cc1c(COc2cc(OCc3cncc(C#N)c3)c(CN[C@@](C)(CO)C(=O)O)cc2Cl)cccc1-c1cc(OCCCN2CC[C@@H](O)C2)cc(OCCCN2CC[C@@H](O)C2)c1` [Example 3064, (S)-2-((4-((3′,5′-bis(3-((R)-3-hydroxypyrrolidin-1-yl)propoxy)-2-methyl-[1,1′-biphenyl]-3-yl)methoxy)-5-chloro-2-((5-cyanopyridin-3-yl)methoxy)benzyl)amino)-3-hydroxy-2-methylpropanoic Acid] as the compound, how does the IC50 read?
Answer: Its IC50 is 2010 to 10000 nM.
